GI50 and TGI data for twelve compounds are collected here from PubChem BioAssay (NCI).

Several values for one entry are separate records, joined by “and”; a condition that tells them apart may be missing. Equal values may be shown once.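 Where inhibition never reached the appropriate level, the endpoint shown equals the highest concentration tested. Otherwise, values were interpolated linearly from a five-concentration, 48-hour dose response in 96-well plates. Here, GI50 denotes the concentration required for 50% inhibition of growth. TGI: concentration producing complete growth inhibition.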 Where only a bound is given, the exact number is not on record here.

What all share (test): NCI tumour cell line growth inhibition, 48 h
Test [1] deals with SK-MEL-2 melanoma.
In test [2] the test system is SK-MEL-28 melanoma.
Test [3] concerns SN12C renal.
The subject of test [4] is HOP-92 NSCLC.
The test system of test [5] is U251 CNS.
Test [6] relates to A549 NSCLC.
For test [7], the system named is K-562 leukemia.
Test [8] concerns IGROV1 ovarian.
In test [9] the test system is PC-3 prostate.
Test [10] has as its system UACC-62 melanoma.

As for `CCN(CC)CCCCCCNc1cccc2cc(Br)cnc12`, the GI50 was 5.01 µM in test [1]; 2.82 µM in test [2]; 5.92 µM in [3]; 2.52 µM in test [4]; 5.36 µM in [5]; 8.07 µM in [6]. The GI50 in test [7] is 2.08 µM; in test [8], 3.25 µM; in [9], 3.6 µM; in [10] it was 2.07 µM. In addition, the TGI was determined as 18 µM in test [1]; 6.76 µM in test [2]; 21 µM in [3]; 9.44 µM in [4]; 17.7 µM in [5]; 22.6 µM in test [6]. Moreover, the TGI is 5.59 µM in test [7], 10.9 µM in [8], 17 µM in test [9] and 4.7 µM in [10].

For the compound `C=CC(=O)N1CN(C(=O)C=C)CN(C(=O)C=C)C1`, the GI50 is 5.46 µM in test [1]; 4.02 µM in test [2]; 20.7 µM in [3]; 3.56 µM in [4]; 4.34 µM in [5]; 21.2 µM in test [6]. The GI50 in [7] was 3.01 µM; in test [8], 3.34 µM; in test [9], 9.16 µM; in [10], 3.49 µM. For the same compound, the TGI in [1] is 47.4 µM; in test [2], 16.2 µM; in test [3] it was 51.6 µM; in [4] it was 13 µM; in test [5] it was 16.5 µM; in test [6], 81.7 µM. Further, the TGI in [7] came out at 9.83 µM; in [8], 11.3 µM; in test [9] it was 53.9 µM; in test [10], 12 µM.

For `NNCCc1ccc(NC(=O)CCCc2ccc(C(=O)Nc3ccccc3N)cc2)cc1`, the GI50 in test [1] is 7.49 µM; in test [2] it was 12.1 µM; in test [3], 28 µM; in test [4] it was 7.26 µM; in test [5] it was 12 µM; in [6] it was 31.9 µM. The GI50 in test [7] was 3.58 µM; in test [8], 31 µM; in test [9] it was 12 µM; in [10] it was 3.79 µM. Further, the TGI in test [1], in test [2], in test [3], in test [4], in test [5] and in [6] was greater than 100 µM throughout. The TGI is greater than 100 µM in [7], greater than 100 µM in test [8], greater than 100 µM in test [9] and 31.8 µM in test [10].

In the case of `CN(C)C(=S)SSC(=S)N(C)C`, the GI50 in test [1] is 34.2 µM and 57 µM and 17 µM; in test [2] it was 17.8 µM; in test [3], 14.7 µM; in test [4], 17.3 µM and 59.5 µM and 18.4 µM; in [5], 12.6 µM; in test [6], 17.2 µM and 3.51 µM and 19.7 µM. Also, the GI50 was greater than 89.9 µM in test [8] and 15.8 µM in test [10]. Further, the TGI in test [1] is > 100 µM and 39.4 µM; in [2], 42.4 µM and > 89.9 µM and > 54 µM; in test [3] it was 28.7 µM and > 46.4 µM and 54.5 µM; in test [4], 42.8 µM and > 100 µM and 36.7 µM; in test [5], 26 µM and > 65.3 µM and 38.5 µM; in test [6] it was 45.9 µM and > 100 µM and 48.1 µM. The TGI in test [7] was > 100 µM and 16.5 µM; in test [8] it was > 100 µM and 29.3 µM; in test [9] it was 26.6 µM and > 100 µM and 32 µM; in test [10] it was 32.8 µM and > 41.6 µM and 28.2 µM.

For `CCC(C)(O)c1cnc(CC(C)C)c(=O)n1O` (stereo not drawn), the TGI in test [1], in test [2], in [3], in test [4], in test [5] and in test [6] was greater than 100 µM each time. Moreover, the TGI in test [7] is 47.8 µM; in test [8], greater than 100 µM; in [9], greater than 100 µM; in [10], greater than 100 µM.

Turning to `N#CCCN1C/C(=C/c2ccc(Br)cc2)C(=O)/C(=C/c2ccc(Br)cc2)C1`, the GI50 in test [1] was 2.6 µM; in test [2] it was 1.77 µM; in test [3], 1.88 µM; in test [4], 1.71 µM; in [5], 0.409 µM; in test [6], 2.38 µM. Besides, the GI50 is 0.454 µM in [7], 2.02 µM in test [8], 1.51 µM in [9] and 1.93 µM in [10]. Moreover, the TGI came to 6.54 µM in test [1]; 3.51 µM in [2]; 4.6 µM in [3]; 4.89 µM in test [4]; 1.58 µM in [5]; 26.3 µM in [6]. The TGI was greater than 100 µM in test [7], 5.35 µM in test [8], 7.54 µM in test [9] and 4.52 µM in [10].

As for `COc1ccc(-c2cnnn2-c2nonc2-n2cccc2)cc1`, the GI50 in [1] was 0.189 µM; in [2], 0.52 µM; in test [3] it was 0.595 µM; in test [4], 0.437 µM; in test [5], 0.344 µM; in [6] it was 0.45 µM. For the same compound, the GI50 in [7] was 0.039 µM; in [8] it was 0.536 µM; in test [9], 0.331 µM; in test [10], 0.529 µM. Further, the TGI in test [1] was 0.8 µM; in test [2], greater than 100 µM; in [3], greater than 100 µM; in [4] it was 43.9 µM; in [5], 8.41 µM; in [6], greater than 44.8 µM. Further, the TGI was greater than 100 µM in test [7], greater than 92.8 µM in [8], 31.9 µM in test [9] and 28.2 µM in test [10].

As for `CN(C)CCNCCN`, the TGI in [1], in test [2], in test [3], in test [4], in [5] and in test [6] was greater than 100 µM in each case. Further, the TGI in test [7], in [8], in [9] and in test [10] was greater than 100 µM in each case.

Turning to `CC(C)CC(C/C=C1/CC(CO)(COC(=O)C(C)(C)C)OC1=O)CC(C)C` (stereo not drawn), the TGI in test [1] was 30.3 µM and 24.3 µM; in [2] it was 44.7 µM and 20.8 µM; in test [3], 22.2 µM; in [4], 18.8 µM; in [5], 21.7 µM; in test [6], 16.1 µM and 11.2 µM. For the same compound, the TGI in test [7] is 27.4 µM and > 37.5 µM; in test [8], 30.6 µM and 24.4 µM; in test [9] it was 21.2 µM and 21.6 µM; in test [10] it was 28.8 µM and 24.1 µM. In addition, the GI50 in test [2] was 28.7 µM; in test [6], 1.07 µM and 0.515 µM.

For `O=C1Nc2ccccc2/C1=C1\CCc2cc(O)ccc21`, the GI50 in [1] was 9.99 µM; in [2], 15.3 µM; in test [3], 7.84 µM; in test [4] it was 5.93 µM; in test [5] it was 8.84 µM; in [6], 9.45 µM. Moreover, the GI50 in test [7] is 9.09 µM; in test [8], 7.63 µM; in test [9] it was 12.4 µM; in test [10], 7.73 µM. Moreover, the TGI in test [1] was greater than 25 µM; in test [2], greater than 25 µM; in test [3], greater than 25 µM; in test [4] it was 22.8 µM; in test [5] it was greater than 25 µM; in test [6] it was greater than 25 µM. In addition, the TGI in test [7], in test [8], in [9] and in [10] was greater than 25 µM each time.

As to `OC(c1cc(-c2ccc(C(F)(F)F)cc2)nc(C(F)(F)F)c1)C1CCCCN1` (stereo not drawn), the TGI in [1] is 3.42 µM and 3.49 µM; in test [2], 3.27 µM and 5.97 µM; in [3], 3.19 µM and 7.37 µM; in [4], 2.47 µM and 9.39 µM; in test [5] it was 2.86 µM and 3.34 µM; in test [6], 3.4 µM and 4.92 µM. The TGI is 2.94 µM and 4.06 µM in [7]; 3.1 µM and 4.89 µM in test [8]; 3.37 µM and 6.33 µM in test [9]; 3.02 µM and 3.51 µM in test [10]. Moreover, the GI50 was 1.83 µM and 2.55 µM in [2]; 1.79 µM and 3.13 µM in [3]; 1.06 µM and 2.38 µM in test [4]; 1.53 µM in test [5]; 1.84 µM and 2.05 µM in test [6]; 1.2 µM and 1.91 µM in test [7]. Besides, the GI50 in [8] is 2.02 µM; in test [9], 1.72 µM.

As for `O=C1c2ccccc2-c2c1c1ccccc1c(=O)n2CCN1CCNCC1`, the GI50 in test [1] is 12.7 µM; in test [2], 5.82 µM; in test [3], 2.21 µM; in test [4] it was 4.44 µM; in test [5], 1.08 µM; in [6] it was 0.576 µM. Besides, the GI50 is 0.902 µM in [7], 3.61 µM in [8], 4.02 µM in test [9] and 1.37 µM in [10]. Moreover, the TGI was determined as 36.2 µM in test [1]; 27.6 µM in test [2]; 18.1 µM in test [3]; 17.4 µM in [4]; 3.66 µM in test [5]; 3.6 µM in [6]. The TGI in test [7] was 5.05 µM; in [8] it was greater than 100 µM; in [9], 17.8 µM; in [10] it was 3.15 µM.
